Values of other authors, collected in patent US20030148386A1, “Method for drug design using comparative molecular field analysis (CoMFA) extended for multi-mode/multi-species ligand binding and disposition” (priority 2001, published 2003).

Target: T1, aryl hydrocarbon (Ah) receptor (Rattus norvegicus, UniProt P41738)
T1 sequence (P41738 10-853): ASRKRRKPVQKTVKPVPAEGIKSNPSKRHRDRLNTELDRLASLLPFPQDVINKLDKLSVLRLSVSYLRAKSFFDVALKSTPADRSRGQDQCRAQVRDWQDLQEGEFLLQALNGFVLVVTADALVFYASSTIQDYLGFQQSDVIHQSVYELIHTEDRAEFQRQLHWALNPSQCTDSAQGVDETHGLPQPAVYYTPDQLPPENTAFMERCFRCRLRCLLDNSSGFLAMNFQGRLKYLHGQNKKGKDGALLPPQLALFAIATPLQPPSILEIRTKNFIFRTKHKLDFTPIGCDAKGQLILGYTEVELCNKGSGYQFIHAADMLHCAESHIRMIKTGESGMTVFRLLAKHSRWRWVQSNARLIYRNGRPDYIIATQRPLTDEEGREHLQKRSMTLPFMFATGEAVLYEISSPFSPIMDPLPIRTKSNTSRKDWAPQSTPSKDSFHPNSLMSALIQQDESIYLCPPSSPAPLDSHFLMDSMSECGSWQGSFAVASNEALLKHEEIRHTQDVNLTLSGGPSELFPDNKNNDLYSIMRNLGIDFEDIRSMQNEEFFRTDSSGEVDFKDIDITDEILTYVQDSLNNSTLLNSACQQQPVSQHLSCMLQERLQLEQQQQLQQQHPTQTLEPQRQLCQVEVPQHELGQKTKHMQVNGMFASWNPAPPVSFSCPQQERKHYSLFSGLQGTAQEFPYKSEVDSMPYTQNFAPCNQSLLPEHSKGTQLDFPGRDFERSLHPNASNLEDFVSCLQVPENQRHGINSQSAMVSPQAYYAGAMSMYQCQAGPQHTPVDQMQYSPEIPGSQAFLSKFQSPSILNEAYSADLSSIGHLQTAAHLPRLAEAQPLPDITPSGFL
Settings: not given

In the case of `Clc1cc2oc3c(Cl)c(Cl)c(Cl)cc3c2cc1Cl` [Compound 29], the “binding affinity to the Ah receptor (in words)” value is listed as “highest binding affinity”.
For `Clc1cc2c(cc1Cl)Oc1cc(Cl)c(Cl)cc1O2` [TCDD, 2,3,7,8-tetrachloro dibenzodioxin, reference compound], the “binding affinity to the Ah receptor (in words)” value is listed as “highest binding affinity”.

Same assay, conditions: pEC50=-log(EC50)=logKi, EC50 in mol/L; displacement of radiolabeled TCDD

First: Clc1ccc2c(c1)oc1ccccc12 [Compound 03]
Second: Clc1cc(Cl)c2c(c1)oc1ccc(Cl)cc12 [Compound 09]
The pEC50 observed of the first is higher: 4.377 ± 0.058 for the first, 4.071 for the second.

Compared with `Clc1cc(Cl)c2c(c1)oc1c(Cl)cccc12` [Compound 08], `Clc1cc2oc3c(Cl)cccc3c2c(Cl)c1Cl` [Compound 13] is higher in pEC50 observed: 5.357 for the first, 6.456 for the second.

Compared with `Clc1ccc2c(c1)oc1cc(Cl)c(Cl)c(Cl)c12` [Compound 14], `Clc1ccc2c(c1)oc1c(Cl)c(Cl)c(Cl)cc12` [Compound 17] is higher in pEC50 observed: 6.959 for the first, 7.602 for the second.

First: Clc1cc2c(oc3c(Cl)cccc32)c(Cl)c1Cl [Compound 16]
Second: Clc1ccc2oc3c(Cl)c(Cl)c(Cl)cc3c2c1 [Compound 18]
The pEC50 observed of the first is lower: 6.456 for the first, 6.699 for the second.

First: Clc1cc(Cl)c2oc3cc(Cl)c(Cl)cc3c2c1 [Compound 19]
Second: Clc1cc2oc3c(Cl)c(Cl)c(Cl)cc3c2cc1Cl [Compound 29]
The pEC50 observed of the first is lower: 6.658 for the first, 7.824 ± 0.028 for the second.

Compared with `Clc1cc2oc3cc(Cl)c(Cl)cc3c2cc1Cl` [Compound 20], `Clc1cc2oc3cc(Cl)c(Cl)c(Cl)c3c2cc1Cl` [Compound 22] is lower in pEC50 observed: 7.387 ± 0.059 for the first, 7.128 ± 0.105 for the second.

First: Clc1ccc2oc3c(Cl)c(Cl)c(Cl)c(Cl)c3c2c1 [Compound 21]
Second: Clc1cc2oc3c(Cl)c(Cl)c(Cl)c(Cl)c3c2cc1Cl [Compound 31]
The pEC50 observed of the first is higher: 6.921 for the first, 6.638 for the second.

Compared with `Clc1cc(Cl)c2c(c1)oc1cc(Cl)c(Cl)c(Cl)c12` [Compound 23], `Clc1cc(Cl)c2c(c1)oc1c(Cl)cc(Cl)c(Cl)c12` [Compound 27] is lower in pEC50 observed: 6.398 for the first, 4.699 for the second.

Going from `Clc1ccc2c(oc3c(Cl)cc(Cl)c(Cl)c32)c1Cl` [Compound 24] to `Clc1cc(Cl)c2oc3c(Cl)cc(Cl)c(Cl)c3c2c1` [Compound 25], the pEC50 observed falls from 7.169 to 5.509.

Going from `Clc1cc2oc3c(Cl)cc(Cl)c(Cl)c3c2cc1Cl` [Compound 26] to `Clc1cc2oc3c(Cl)c(Cl)cc(Cl)c3c2cc1Cl` [Compound 28], the pEC50 observed rises from 5.886 to 6.699.

`Clc1cc(Cl)c2c(c1)oc1c(Cl)c(Cl)c(Cl)cc12` [Compound 30] and `Clc1cc2c(oc3cc(Cl)c(Cl)c(Cl)c32)c(Cl)c1Cl` [Compound 32] are within 0.2 log units of each other in pEC50 observed: 6.699 for the first, 6.569 ± 0.137 for the second.

Going from `Clc1cc2c(oc3c(Cl)cc(Cl)c(Cl)c32)c(Cl)c1Cl` [Compound 33] to `Clc1cc2c(oc3c(Cl)c(Cl)c(Cl)cc32)c(Cl)c1Cl` [Compound 34], the pEC50 observed rises from 5.081 to 7.328 ± 0.036.
